Assay results taken from paper PMC6766655, “AhR–ROR-γt complex is a therapeutic target for MAP4K3/GLK^highIL-17A^high subpopulation of systemic lupus erythematosus” (The FASEB Journal, 2019).

Legend:
GLK kinase domain = target: T1, GLK kinase domain (Homo sapiens, UniProt Q8IVH8); assay: In vitro GLK kinase assay with kinase-dead PKC-θ (K409W) as substrate; assay type: biochemical; settings: GST-tagged kinase-dead PKC-θ (K409W) substrate; Fig. 3B
T1 construct: Recombinant proteins of GLK kinase domain plus recombinant proteins of GST-tagged kinase-dead PKC-θ (K409W) were subjected to in vitro kinase assays; made in house; host or cells: Escherichia coli (BL21)
T1 sequence (Q8IVH8 16-273 limits assumed): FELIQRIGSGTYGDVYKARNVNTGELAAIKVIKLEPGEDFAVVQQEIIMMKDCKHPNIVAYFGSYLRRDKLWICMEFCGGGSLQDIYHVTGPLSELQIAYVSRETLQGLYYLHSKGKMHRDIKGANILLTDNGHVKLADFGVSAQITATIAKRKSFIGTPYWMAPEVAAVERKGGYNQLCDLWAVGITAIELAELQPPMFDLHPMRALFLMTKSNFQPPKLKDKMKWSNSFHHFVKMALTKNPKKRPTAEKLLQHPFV
Procedure: GLK kinase activity was determined by measuring the rate of ADP production in the in vitro kinase reaction using ADP-Glo Kinase Assay Kit (Promega). For the kinase reaction, recombinant proteins of the GLK kinase domain (1 μg) were incubated with recombinant proteins of kinase-dead PKC-θ (K409W; 0.15 μg) plus ATP (0.1 mM) or myelin basic protein (MilliporeSigma) plus ATP (0.1 mM) in kinase buffer [40 mM Tris-HCl (pH 7.5), 20 mM MgCl2, 0.1 mg/ml bovine serum albumin, 10 mM DTT, and 0.1 mM Na3VO4] for 30 min at room temperature.
Cell-based high‐throughput screening was conducted against a representative library of 100,000 molecules at ∼10 μM. The Chinese hamster ovary CHO-K1 (ATCC, CCL-61) cells expressing GLK and NF-κB luciferase (Luc) reporter were used. The reaction volume was 5 μl (500 cells) per well in 1536‐well plates. There was no positive control. This high‐throughput screening campaign was successful, with a determined Z' factor of 0.57 ∼ 0.60. […] At the end, 1392 compounds were identified for high inhibition (>80%) of the GLK-induced NF-κB luciferase activity of CHO‐GLK‐Luc cells. […]
Figure 3 Verteporfin (C1) blocks the AhR–ROR-γt complex in human autoimmune T cells. […] D) Quantification of the PLA signals shown in panel C. *P < 0.05, ***P < 0.001 (2-tailed Student’s t test).

Lck-GLK Tg mice = assay: Serum cytokines and autoantibodies (ELISA) in Lck-GLK Tg mice; assay type: in vivo; settings: 0.4 μg/g body weight i.v. every 3 d
From the text: Lck-GLK Tg mice with C57BL/6J backgrounds and GLK-deficient mice with C57BL/6J backgrounds were generated as previously described ([18], [21]). Their respective wild-type littermates with C57BL/6J backgrounds were used as controls. Mice used in this report were either 20-wk-old sex-matched littermates or 8–10-wk-old sex-matched [all female for EAE, all male for collagen-induced arthritis (CIA)] C57BL/6J wild-type mice. All mice used in this study were maintained in temperature-controlled and pathogen-free cages. All animal experiments were performed in the Association for Assessment and Accreditation of Laboratory Animal Care–animal housing facilities at National Health Research Institutes. All mice were used according to the protocols and guidelines approved by the Institutional Animal Care and Use Committee of National Health Research Institutes.
Lck-GLK Tg mice were administered verteporfin (0.4 μg/g body weight) by intravenous injection every 3 d for a period of 30 d (Fig. 4A). […] Moreover, overproduction of autoantibodies (anti-nuclear antibody, anti-dsDNA antibody, and rheumatoid factor) in Lck-GLK Tg mice was also abolished by the verteporfin treatment for 30 d (Fig. 4C). […] To further verify that verteporfin is also effective in IL-17A–mediated animal models, we treated wild-type mice with verteporfin during induction of EAE and CIA.
Figure 4 Verteporfin (C1) suppresses IL-17 production and autoimmune responses in mice. A–C) Effect of C1 administration (0.4 μg/g body weight every 3 d for a period of 30 d) on serum IL-17A and autoantibodies in 20-wk-old Lck-GLK Tg mice. B) ELISA of serum IL-17A, IL-6, TNF-α, IFN-γ, and IL-17F in Lck-GLK Tg mice treated with C1 or PBS for 16 d. C) ELISA of serum autoantibodies in Lck-GLK Tg mice treated with C1 or PBS for 30 d. Means ± SEM are shown; n = 4/group. D) EAE induction in wild-type C57BL/6J mice treated with PBS or C1 (0.4 μg/g body weight every 3 d). Clinical scores are presented on a scale of 1–5. PBS group, n = 10; C1 group, n = 7. E) ELISA of IL-17A in the sera from MOG-immunized mice at day 16. […]

verteporfin was tested, and the “GLK kinase activity in vitro” value (GLK kinase domain) was “efficiently inhibited”, the “serum levels of IL-6, TNF-α, IFN-γ, and IL-17F” value (Lck-GLK Tg mice; 16 d) was “not significantly changed” and the “serum IL-17A” value (Lck-GLK Tg mice; 16 d, vs PBS) was “significantly decreased”. The “overproduction of autoantibodies (anti-nuclear antibody, anti-dsDNA antibody, rheumatoid factor)” value (Lck-GLK Tg mice; 30 d) was “abolished”.
